The values below come from ChEMBL document CHEMBL4342510, “Design and Synthesis of Benzene Congeners of Resolvin E2, a Proresolving Lipid Mediator, as Its Stable Equivalents” (ACS Med Chem Lett, 2020).

Data set [1] has as its system Mus musculus. Briefly: Antiinflammatory activity against BALB/c mouse model of heat-killed Propionibacterium acnes-induced peritonitis assessed as decrease in number of neutrophils at 300 pg, ip administered 12 hrs post Propionibacterium acnes injection and measured after 12 hrs. In kind it is functional, organism-based.
The test system of data set [2] is Mus musculus. The data set can be described thus: Antiinflammatory activity against ip dosed BALB/c mouse model of heat-killed Propionibacterium acnes-induced peritonitis assessed as decrease in number of neutrophils administered 12 hrs post Propionibacterium acnes injection and measured after 12 hrs. The class given is functional, organism-based.
Data set [3] can be described thus: Metabolic stability in human liver microsomes assessed as parent compound remaining measured after 6 hrs by HPLC analysis. The class given is ADME, Microsome. The conditions noted are these: read-out: Stability.

Activity calls are given as the source filed them. The rule behind the calls is not given here.

Turning to `CC[C@@H](O)/C=C/c1ccccc1C/C=C/[C@@H](O)CCCC(=O)O`, the inhibition result in the data set with Mus musculus [1] was “Active”. For the same compound, the inhibition entry with Mus musculus [2] is “Dose-dependent effect”.

For `CC[C@@H](O)/C=C/c1cccc(C/C=C/[C@@H](O)CCCC(=O)O)c1`, in the data set on Mus musculus [1], the inhibition entry is “inactive”.

Consider `CC[C@@H](O)/C=C/C=C\C/C=C\C/C=C\C=C\[C@@H](O)CCCC(=O)O`, for which the inhibition result in the data set with Mus musculus [1] was “Active”. Also, the remaining at 6 h in data set [3] was < 40%. In addition, in the data set with Mus musculus [2], the inhibition result was “Dose-dependent effect”.

Take `CC[C@@H](O)/C=C/c1ccc(C/C=C/[C@@H](O)CCCC(=O)O)cc1`: the inhibition result in the data set with Mus musculus [1] was “inactive”. The remaining at 6 h in data set [3] was < 40%.
